Earlier results in patent US20070053831A1, “Methods for binding agents to b-amyloid plaques” (priority 2003, published 2007).

System: amyloid plaques
Conditions: cited from earlier work

For `O=C(O)c1cc(/N=N/c2ccc(-c3ccc(/N=N/c4ccc(O)c(C(=O)O)c4)cc3)cc2)ccc1O` [Chrysamine G], the “ability to label amyloid plaques in Alzheimer's brain” value is listed as “appears weak”.
